The target in the test is T1, human TRPC6 (Homo sapiens, UniProt Q9Y210).
T1 construct: expressed in transfected cells
T1 sequence (Q9Y210 1-931): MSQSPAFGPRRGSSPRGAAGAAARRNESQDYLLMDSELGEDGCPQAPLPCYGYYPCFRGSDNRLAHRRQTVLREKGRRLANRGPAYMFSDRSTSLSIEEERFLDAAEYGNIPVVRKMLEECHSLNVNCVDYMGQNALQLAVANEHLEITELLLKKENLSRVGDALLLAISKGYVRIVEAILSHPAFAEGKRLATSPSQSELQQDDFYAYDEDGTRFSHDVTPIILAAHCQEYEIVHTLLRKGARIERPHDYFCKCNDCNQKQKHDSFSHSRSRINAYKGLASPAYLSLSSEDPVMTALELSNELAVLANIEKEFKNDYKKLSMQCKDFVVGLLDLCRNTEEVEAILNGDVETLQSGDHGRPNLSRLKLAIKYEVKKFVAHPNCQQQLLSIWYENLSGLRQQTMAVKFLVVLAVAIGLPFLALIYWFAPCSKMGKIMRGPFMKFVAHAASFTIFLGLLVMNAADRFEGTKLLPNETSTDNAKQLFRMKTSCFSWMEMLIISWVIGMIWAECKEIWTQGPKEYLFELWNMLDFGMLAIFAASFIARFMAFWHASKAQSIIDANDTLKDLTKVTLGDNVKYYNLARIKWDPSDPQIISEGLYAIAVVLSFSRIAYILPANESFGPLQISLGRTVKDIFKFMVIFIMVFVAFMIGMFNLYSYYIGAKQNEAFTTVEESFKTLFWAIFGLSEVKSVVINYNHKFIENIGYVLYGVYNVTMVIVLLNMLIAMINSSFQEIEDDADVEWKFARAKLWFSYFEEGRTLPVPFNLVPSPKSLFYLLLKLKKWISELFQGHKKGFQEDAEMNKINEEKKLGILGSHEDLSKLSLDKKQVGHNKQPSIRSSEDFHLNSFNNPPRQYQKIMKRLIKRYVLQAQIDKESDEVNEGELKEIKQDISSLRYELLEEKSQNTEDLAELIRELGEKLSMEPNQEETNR
Kind of test: TRPC6 calcium flux assay (FLIPR, OAG-stimulated calcium influx). Type of test: cell-based. As to conditions: HEK293 cells stably transfected with human TRPC6, read-out: hTRPC6 Potency. The method, boiled down:
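HEK293 cells stably expressing human TRPC6, loaded with calcium dye 90–120 min at RT, then given compound for 25 min before OAG (50 uM final, 0.5% DMSO) in HEPES buffer pH 7.2 with 2 mM CaCl2. Background-subtracted FLIPR peak over 180 s normalized to OAG vs buffer; IC50 from dose plot.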

Structures are written as SMILES.

Turning to `N#Cc1ccc(Cn2c(N3CC[C@@H](F)[C@H](N)C3)nc3ccc(C#N)cc32)cc1` [Example 158, 2-((3R,4R)-3-amino-4-fluoro-1-piperidinyl)-1-(4-cyanobenzyl)-1H-benzimidazole-6-carbonitrile], the IC50 was 4.71 nM. With `N#Cc1ccc(Cn2c(N3CC[C@@H](F)[C@H](N)C3)nc3cc(C#N)ccc32)cc1` [Example 159, 2-((3R,4R)-3-amino-4-fluoro-1-piperidinyl)-1-(4-cyanobenzyl)-1H-benzimidazole-5-carbonitrile] the figure was 16.4 nM; with `N#Cc1ccc(Cn2c(N3CCC(F)(F)[C@H](N)C3)nc3ccc(C#N)cc32)cc1` [Example 160, 2-((3R)-3-amino-4,4-difluoro-1-piperidinyl)-1-(4-cyanobenzyl)-1H-benzimidazole-6-carbonitrile], 14.2 nM; with `N#Cc1ccc(Cn2c(N3CCC(F)(F)[C@H](N)C3)nc3cc(C#N)ccc32)cc1` [Example 161, 2-((3R)-3-amino-4,4-difluoro-1-piperidinyl)-1-(4-cyanobenzyl)-1H-benzimidazole-5-carbonitrile], 133 nM. `N#Cc1ccc(Cn2c(N3CCC[C@@H](N)C3)nc3ccccc32)cc1` [Example 162, (R)-4-((2-(3-aminopiperidin-1-yl)-1H-benzo[d]imidazol-1-yl)methyl)benzonitrile]: the IC50 came out at 257 nM.

For `C[C@@H]1CCN(c2nc3ccccc3n2Cc2ccc(C#N)cc2)C[C@@H]1N` [Example 163, 4-((2-((3R,4R)-3-amino-4-methylpiperidin-1-yl)-1H-benzo[d]imidazol-1-yl)methyl)benzonitrile], the IC50 came to 2840 nM. `N#Cc1ccc(Cn2c(N3CC[C@H](N)C3)nc3ccccc32)cc1` [Example 166, (S)-4-((2-(3-aminopyrrolidin-1-yl)-1H-benzo[d]imidazol-1-yl)methyl)benzonitrile]: the IC50 stood at 560 nM.

With `N#Cc1ccc(Cn2c(N3CCC[C@H](N)C3)nc3ccccc32)cc1` [Example 167, (S)-4-((2-(3-aminopiperidin-1-yl)-1H-benzo[d]imidazol-1-yl)methyl)benzonitrile], the IC50 was 1.97 nM. For `N#Cc1ccc(Cn2c(N3CCC4(CCCC4N)C3)nc3ccccc32)cc1` (stereo not drawn) [Example 168, 4-((2-(6-amino-2-azaspiro[4.4]nonan-2-yl)-1H-benzo[d]imidazol-1-yl)methyl)benzonitrile] the value was 1600 nM. For `N#Cc1ccc(Cn2c(N3CC4CCC(N)C4C3)nc3ccccc32)cc1` (stereo not drawn) [Example 169, 4-((2-(4-aminohexahydrocyclopenta[c]pyrrol-2(1H)-yl)-1H-benzo[d]imidazol-1-yl)methyl)benzonitrile], the IC50 turned out to be 14.2 nM. Take `N#Cc1ccc(Cn2c(N3CC[C@H](F)[C@@H](N)C3)nc3ccccc32)cc1` [Example 170, 4-((2-((3S,4S)-3-amino-4-fluoropiperidin-1-yl)-1H-benzo[d]imidazol-1-yl)methyl)benzonitrile]: the IC50 turned out to be 25.9 nM.

For `N#Cc1ccc(Cn2c(N3CC[C@@H](F)[C@@H](N)C3)nc3ccccc32)cc1` [Example 171, 4-((2-((3S,4R)-3-amino-4-fluoropiperidin-1-yl)-1H-benzo[d]imidazol-1-yl)methyl)benzonitrile], the IC50 turned out to be 544 nM. On to `N#Cc1ccc(Cn2c(N3CC[C@H](F)[C@H](N)C3)nc3ccccc32)cc1` [Example 172, 4-((2-((3R,4S)-3-amino-4-fluoropiperidin-1-yl)-1H-benzo[d]imidazol-1-yl)methyl)benzonitrile], for which the IC50 was determined as 2.22 nM. With `N#Cc1ccc(Cn2c(N3CC[C@@H](F)[C@H](N)C3)nc3ccccc32)cc1` [Example 173, 4-((2-((3R,4R)-3-amino-4-fluoropiperidin-1-yl)-1H-benzo[d]imidazol-1-yl)methyl)benzonitrile] the figure was 1.38 nM; with `N#Cc1ccc(Cn2c(N3CC[C@@](F)(CN)C3)nc3ccccc32)cc1` [Example 174, (R)-4-((2-(3-(aminomethyl)-3-fluoropyrrolidin-1-yl)-1H-benzo[d]imidazol-1-yl)methyl)benzonitrile 2,2,2-trifluoroacetate], 564 nM. For `N#Cc1ccc(Cn2c(N3CC[C@](F)(CN)C3)nc3ccccc32)cc1` [Example 175, (S)-4-((2-(3-(aminomethyl)-3-fluoropyrrolidin-1-yl)-1H-benzo[d]imidazol-1-yl)methyl)benzonitrile 2,2,2-trifluoroacetate], the IC50 was 1700 nM. For `N#Cc1ccc(Cn2c(N3CC[C@@](O)(CN)C3)nc3ccccc32)cc1` [Example 176, (R)-4-((2-(3-(aminomethyl)-3-hydroxypyrrolidin-1-yl)-1H-benzo[d]imidazol-1-yl)methyl)benzonitrile 2,2,2-trifluoroacetate] the value was 2330 nM; for `N#Cc1ccc(Cn2c(N3CC[C@](O)(CN)C3)nc3ccccc32)cc1` [Example 177, (S)-4-((2-(3-(aminomethyl)-3-hydroxypyrrolidin-1-yl)-1H-benzo[d]imidazol-1-yl)methyl)benzonitrile 2,2,2-trifluoroacetate], 1540 nM. On to `N#Cc1ccc(Cn2c(N3CC[C@@H](CN)C3)nc3ccccc32)cc1` [Example 178, (S)-4-((2-(3-(aminomethyl)pyrrolidin-1-yl)-1H-benzo[d]imidazol-1-yl)methyl)benzonitrile], for which the IC50 came to 47.1 nM. With `N#Cc1ccc(Cn2c(N3CC[C@H](CN)C3)nc3ccccc32)cc1` [Example 179, (R)-4-((2-(3-(aminomethyl)pyrrolidin-1-yl)-1H-benzo[d]imidazol-1-yl)methyl)benzonitrile] the figure was 326 nM; with `C[C@H]1CCN(c2nc3ccccc3n2Cc2ccc(C#N)cc2)C[C@H]1N` [Example 180, 4-((2-((3S,4S)-3-amino-4-methylpiperidin-1-yl)-1H-benzo[d]imidazol-1-yl)methyl)benzonitrile 2,2,2-trifluoroacetate], 14.9 nM; with `C[C@@H]1CCN(c2nc3ccccc3n2Cc2ccc(C#N)cc2)C[C@H]1N` [Example 181, 4-((2-((3S,4R)-3-amino-4-methylpiperidin-1-yl)-1H-benzo[d]imidazol-1-yl)methyl)benzonitrile 2,2,2-trifluoroacetate], 0.907 nM. For `C[C@H]1CCN(c2nc3ccccc3n2Cc2ccc(C#N)cc2)C[C@@H]1N` [Example 182, 4-((2-((3R,4S)-3-amino-4-methylpiperidin-1-yl)-1H-benzo[d]imidazol-1-yl)methyl)benzonitrile 2,2,2-trifluoroacetate] the value was 314 nM; for `N#Cc1ccc(Cn2c(N3C[C@@H]4C[C@]4(CN)C3)nc3ccccc32)cc1` [Example 183, 4-((2-((1S,5R)-1-(aminomethyl)-3-azabicyclo[3.1.0]hexan-3-yl)-1H-benzo[d]imidazol-1-yl)methyl)benzonitrile], 655 nM; for `N#Cc1ccc(Cn2c(N3C[C@H]4C[C@@]4(CN)C3)nc3ccccc32)cc1` [Example 184, 4-((2-((1R,5S)-1-(aminomethyl)-3-azabicyclo[3.1.0]hexan-3-yl)-1H-benzo[d]imidazol-1-yl)methyl)benzonitrile], 143 nM. With `COc1ccc2nc(N3CCC[C@@H](N)C3)n(Cc3ccc(C#N)cc3)c2c1` [Example 185, (R)-4-((2-(3-aminopiperidin-1-yl)-6-methoxy-1H-benzo[d]imidazol-1-yl)methyl)benzonitrile] the figure was 3.58 nM. Take `COc1ccc2c(c1)nc(N1CCC[C@@H](N)C1)n2Cc1ccc(C#N)cc1` [Example 186, (R)-4-((2-(3-aminopiperidin-1-yl)-5-methoxy-1H-benzo[d]imidazol-1-yl)methyl)benzonitrile]: the IC50 is 278 nM. With `N#Cc1ccc2nc(N3CC[C@@H](F)[C@H](N)C3)n(Cc3ncc(Cl)cn3)c2c1` [Example 187, 2-((3R,4R)-3-amino-4-fluoropiperidin-1-yl)-1-((5-chloropyrimidin-2-yl)methyl)-1H-benzo[d]imidazole-6-carbonitrile] the figure was 1.59 nM; with `N[C@@H]1CN(c2nc3ccccc3n2Cc2ncc(F)cn2)CC[C@H]1F` [Example 188, (3R,4R)-4-fluoro-1-(1-((5-fluoropyrimidin-2-yl)methyl)-1H-benzo[d]imidazol-2-yl)piperidin-3-amine], 13 nM; with `N[C@@H]1CN(c2nc3ccccc3n2Cc2ccc(F)cn2)CC[C@H]1F` [Example 189, (3R,4R)-4-fluoro-1-(1-((5-fluoropyridin-2-yl)methyl)-1H-benzo[d]imidazol-2-yl)piperidin-3-amine], 3.59 nM.
